Measured values taken from US11000516B2 (priority 2015, dated 2021).

Experiments:
[1] = system: EDEN1; assay: Non-lethal viremia mouse model; format: in vivo, mice
Procedure: (§1) Mice were inoculated i.v. with EDEN1 (7×10^7 pfu) or EDEN2 (1×10^8 pfu). […] Average viral copy numbers on day 1 and 2 were measured using mixed serum of each group. […] A P value less than 0.05 was considered significant (*P<0.05). The number of mice per group is 6. […] Average viral copy numbers on days 4 and 5 were measured using mixed serum of each group. […] The virological log reduction (VLR) from day 3 to day 6 was also shown as the mean value and standard deviations. The number of mice per group is 6.
(§2) Since dengue fever patients in general present at a clinic when viremia is at a peak level (Low et al., 2014; Nguyen et al., 2013; Tricou et al., 2010), we next compared the 2 different dosing regimens; one started at the time of infection and another started at the time of peak viremia (on day 3 pi) similar to human situation (FIG. 4A). In this experiment, we used a non-lethal viremia mouse model, which permits the tracking of viremia kinetics for a longer period of time (FIG. 1B).

[2] = system: EDEN2; assay: Non-lethal viremia mouse model; format: in vivo, mice
Procedure: as §1, §2

[3] = system: EDEN1 (clinical DENV1 isolate); assay: Antiviral effect in HuH-7 cells, plaque assay of supernatant 48 h pi; format: cell-based; conditions: read-out: EC50
Procedure: (§3) Cells were infected with DENV strains for 1 hour at 37° C. and washed once with culture media. […] The supernatants were subjected to standard plaque assay and the EC50 values were determined using the GraphPad Prism software.
(§4) NITD008, an adenosine analog inhibitor of DENV polymerase (Yin et al., 2009) was used as a positive control.

[4] = system: S221 (mouse-adapted DENV2 strain); assay: as above; format: cell-based; conditions: HuH-7, S221, MOI 0.3; read-out: EC50
Procedure: as §3, §4

[5] = system: EDEN2 (clinical DENV2 isolate); assay: as above; format: cell-based; conditions: HuH-7, EDEN2, MOI 0.3; read-out: EC50
Procedure: as §3, §4

[6] = system: EDEN1 (clinical DENV1 isolate); assay: Antiviral effect in Vero cells, plaque assay of supernatant 48 h pi; format: cell-based
Procedure: as §3, §4

[7] = system: S221 (mouse-adapted DENV2 strain); assay: as above; format: cell-based; conditions: S221, MOI 0.3, read-out: EC50
Procedure: as §3, §4

[8] = system: EDEN2 (clinical DENV2 isolate); assay: as above; format: cell-based; conditions: EDEN2, MOI 0.3, read-out: EC50
Procedure: as §3, §4

[9] = system: EDEN1 (clinical DENV1 isolate); assay: Ab-mediated infection of THP-1 cells with enhancing concentration of 4G2 Ab; format: cell-based; conditions: THP-1 with 4G2 Ab, EDEN1, MOI 2, single experiment; read-out: EC50
Procedure: as §3, §4

[10] = system: S221 (mouse-adapted DENV2 strain); assay: as above; format: cell-based; conditions: THP-1 with 4G2 Ab, S221, MOI 2, single experiment; read-out: EC50
Procedure: as §3, §4

[11] = system: EDEN2 (clinical DENV2 isolate); assay: as above; format: cell-based; conditions: THP-1 with 4G2 Ab, EDEN2, MOI 50, single experiment; read-out: EC50
Procedure: as §3, §4

[12] = system: EDEN1 (clinical DENV1 isolate); assay: Antiviral effect in BHK-21 cells, plaque assay of supernatant 48 h pi; format: cell-based; conditions: read-out: EC50
Procedure: as §3, §4

[13] = system: S221 (mouse-adapted DENV2 strain); assay: as above; format: cell-based; conditions: BHK-21, S221, MOI 0.3; read-out: EC50
Procedure: as §3, §4

[14] = system: EDEN2 (clinical DENV2 isolate); assay: as above; format: cell-based; conditions: BHK-21, EDEN2, MOI 0.3; read-out: EC50
Procedure: as §3, §4

[15] = CELADEN study regimen, human; cited from earlier work
[16] = mice, celgosivir 50 mg/kg BID; cited from earlier work

For C#C[C@@]1(O)[C@H](O)[C@@H](CO)O[C@H]1n1ccc2c(N)ncnc21 [NITD008, reference compound], the “viremia reduction on day 3 pi” value ([1]; EDEN1, NITD008 25 mg/kg BID from day 0) was 3.5 fold, the “VLR from day 3 to day 6” value ([1]; EDEN1, NITD008 25 mg/kg BID started on day 3) was 0.96 and the “viremia reduction on day 3 pi” value ([2]; EDEN2, NITD008 25 mg/kg BID from day 0) was 4.9 fold. For the same compound, the “VLR from day 3 to day 6” value ([2]; EDEN2, NITD008 25 mg/kg BID started on day 3) was 2.24, the EC50 ([3]; HuH-7, EDEN1, MOI 0.01) was 356 nM and the EC50 ([3]; HuH-7, EDEN1, MOI 0.3) was 684 nM. It also gave an EC50 [4] of 74 nM, an EC50 [5] of 98 nM and an EC50 ([6]; EDEN1, MOI 0.01, read-out: EC50) of 910 nM. For the same compound, the EC50 ([6]; EDEN1, MOI 0.3, read-out: EC50) was 2820 nM, the EC50 [7] was 1480 nM and the EC50 [8] was 1170 nM. It also gave an EC50 [9] of 358 nM, an EC50 [10] of 390 nM and an EC50 [11] of 679 nM. For the same compound, the EC50 ([12]; BHK-21, EDEN1, MOI 0.01) was 608 nM, the EC50 ([12]; BHK-21, EDEN1, MOI 0.3) was 865 nM and the EC50 [13] was 509 nM. For the same compound, the EC50 [14] was 354 nM.

In the case of O[C@H]1[C@H](O)[C@@H](O)CN2CC[C@H](O)[C@H]12 [castanospermine], the “steady state maximum castanospermine concentration” value [15] is listed as 5100 nanograms/ml and the “steady state minimum castanospermine concentration” value [16] is listed as 400 nanograms/ml.
